The values that follow come from PubChem BioAssay (NCI).

Test systems include UO-31 renal; U251 CNS; SF-295 CNS; A549 NSCLC; SW-620 colon; A498 renal; OVCAR-5 ovarian; HCC-2998 colon; SK-MEL-28 melanoma; M14 melanoma; HCT-116 colon; MOLT-4 leukemia.
What all share (assay): DTP human tumour cell line panel, 48 h

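The compound was tested at five concentrations on cells cultured in 96-well plates, with a 48-hour exposure period. TGI is the concentration that stops growth completely.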

Usually TGI stands for the concentration at which net growth stops. For `CC(=O)NC(CCCCNCc1ccccc1)C(=O)NCc1ccccc1` (centres undefined), the TGI in the assay with UO-31 renal, in the assay on U251 CNS, in the assay with SF-295 CNS, with A549 NSCLC, in the assay with SW-620 colon and in the assay with A498 renal was over 100 µM in each case. Further, the TGI in the assay with OVCAR-5 ovarian, with HCC-2998 colon, in the assay on SK-MEL-28 melanoma, with M14 melanoma, in the assay on HCT-116 colon and with MOLT-4 leukemia was over 100 µM throughout.
Take `CC(=O)NC(CCCNC(=O)N(C)N=O)C(=O)NCc1ccccc1` (centres undefined): the TGI with UO-31 renal, in the assay with U251 CNS, in the assay on SF-295 CNS, with A549 NSCLC, in the assay with SW-620 colon and in the assay with A498 renal was over 100 µM each time. Moreover, the TGI in the assay with OVCAR-5 ovarian, in the assay with HCC-2998 colon, in the assay on SK-MEL-28 melanoma, with M14 melanoma, in the assay with HCT-116 colon and in the assay with MOLT-4 leukemia was over 100 µM throughout.
With `CC1(C)CN(CC(=O)O)CC(Cc2ccc(OCC(=O)O)cc2)N(CC(=O)O)CC(C)(C)SS1` (centres undefined), the TGI with UO-31 renal, in the assay with U251 CNS, in the assay on SF-295 CNS, with A549 NSCLC, with SW-620 colon and with A498 renal was over 100 µM each time. The TGI with OVCAR-5 ovarian, with HCC-2998 colon, in the assay with SK-MEL-28 melanoma, in the assay on M14 melanoma, in the assay with HCT-116 colon and with MOLT-4 leukemia was over 100 µM each time.
For `CC(C)CC(=O)CC(C)[C@]1(CCCOCc2ccccc2)C(=O)N2CCC3(C[C@@]24CCC[C@H]41)OCCO3` (some centres undefined), the TGI in the assay on UO-31 renal, in the assay on U251 CNS, in the assay with SF-295 CNS, with SW-620 colon, in the assay on A498 renal and in the assay on OVCAR-5 ovarian was over 10 µM throughout. For the same molecule, the TGI in the assay on HCC-2998 colon, in the assay on M14 melanoma and with MOLT-4 leukemia was over 10 µM each time.
In the case of `COc1ccc(OC2(c3cc(OC)ccc3OC)OC(=O)c3ccccc32)cc1` (centres undefined), the concentration for total growth inhibition (TGI) with UO-31 renal, with U251 CNS, in the assay on SF-295 CNS, in the assay with A549 NSCLC, in the assay with SW-620 colon and with A498 renal was over 100 µM in each case. The total growth inhibition concentration (TGI) in the assay on OVCAR-5 ovarian, in the assay on HCC-2998 colon, in the assay with SK-MEL-28 melanoma, in the assay with M14 melanoma, in the assay on HCT-116 colon and with MOLT-4 leukemia was over 100 µM throughout.
For the molecule `Cc1cc(N(CCC#N)CCC#N)ccc1/C=C1N=C(/C=C\c2ccccc2)N(NC(=O)CC(=O)Nc2ccccc2Cl)C\1=O`, the TGI with UO-31 renal, in the assay with U251 CNS, with SF-295 CNS, with A549 NSCLC, in the assay on SW-620 colon and in the assay on A498 renal was over 100 µM each time. Besides, the TGI in the assay on OVCAR-5 ovarian, in the assay on SK-MEL-28 melanoma, in the assay with M14 melanoma, in the assay with HCT-116 colon and in the assay on MOLT-4 leukemia was over 100 µM throughout.
With `CC(=O)C1C(=O)C(=O)N(c2ccc([N+](=O)[O-])cc2[N+](=O)[O-])C1=O` (centres undefined), the TGI in the assay on UO-31 renal, with U251 CNS, in the assay with SF-295 CNS, in the assay with A549 NSCLC, in the assay on SW-620 colon and in the assay on OVCAR-5 ovarian was over 100 µM each time. Besides, the TGI in the assay with HCC-2998 colon, in the assay with SK-MEL-28 melanoma, with M14 melanoma, in the assay on HCT-116 colon and with MOLT-4 leukemia was over 100 µM each time.
Take `Cc1cc(Cl)ccc1NC(=O)/C(=N\NC(C)(C)C)C(C#N)c1nc(-c2ccc([N+](=O)[O-])cc2)cs1` (centres undefined): the TGI in the assay with UO-31 renal, in the assay with U251 CNS, with SF-295 CNS, in the assay with A549 NSCLC, in the assay on SW-620 colon and in the assay on A498 renal was over 100 µM throughout. For the same molecule, the TGI in the assay with OVCAR-5 ovarian, with HCC-2998 colon, in the assay with SK-MEL-28 melanoma, in the assay on M14 melanoma, with HCT-116 colon and with MOLT-4 leukemia was over 100 µM throughout.
As to `NC(=O)N/N=C(\CC1OC(=O)c2ccccc21)c1ccc([N+](=O)[O-])cc1` (centres undefined), the TGI was over 100 µM in the assay on UO-31 renal; 39.5 µM in the assay with U251 CNS; over 100 µM with SF-295 CNS; over 100 µM in the assay with A549 NSCLC; over 100 µM in the assay with SW-620 colon; over 100 µM in the assay on A498 renal. Moreover, the TGI in the assay on HCC-2998 colon was 32.7 µM; in the assay on M14 melanoma, over 100 µM; in the assay on HCT-116 colon, 74.2 µM; in the assay on MOLT-4 leukemia, over 100 µM.
In the case of `CCN(CC)CCCNc1ccc([N+](=O)[O-])c2nc3ccccc3c(N)c12`, the TGI is over 10 µM in the assay on UO-31 renal; 1.87 µM in the assay on SF-295 CNS; 2.11 µM with A549 NSCLC; 2.04 µM in the assay with SW-620 colon; 9.95 µM in the assay with A498 renal; 3.43 µM in the assay with OVCAR-5 ovarian. Further, the TGI was over 10 µM in the assay on SK-MEL-28 melanoma, 2.43 µM with M14 melanoma, 1.48 µM in the assay on HCT-116 colon and 4.29 µM in the assay with MOLT-4 leukemia.
On to `COc1cc([C@@H]2c3cc4c(cc3[C@@H](NCc3ccccc3F)C3COC(=O)[C@@H]32)OCO4)cc(OC)c1O` (some centres undefined), for which the TGI in the assay with UO-31 renal is 17.3 µM; with U251 CNS it was 9.02 µM; in the assay with SF-295 CNS, over 100 µM; in the assay with A549 NSCLC, 15.1 µM; with SW-620 colon, 39.1 µM; in the assay on A498 renal, 19.7 µM. Besides, the TGI in the assay on OVCAR-5 ovarian was found to be 78.4 µM; with HCC-2998 colon, 28.3 µM; with SK-MEL-28 melanoma, 46.6 µM; in the assay with M14 melanoma, 13.6 µM; with HCT-116 colon, 21.9 µM; in the assay with MOLT-4 leukemia, 7.4 µM.
Take `CCOc1ccc(N(CC(=O)N2CC(=O)Nc3cc(C)c(C)cc32)C(C)=O)cc1`: the total growth inhibition concentration (TGI) in the assay with UO-31 renal, with U251 CNS, with SF-295 CNS, in the assay on A549 NSCLC, with SW-620 colon and in the assay with OVCAR-5 ovarian was over 100 µM each time. In addition, the TGI with HCC-2998 colon, in the assay on SK-MEL-28 melanoma, in the assay on M14 melanoma, in the assay with HCT-116 colon and with MOLT-4 leukemia was over 100 µM each time.
